Patent US10653732B2, “Composition for stimulating insulin secretion from cells and use thereof” (KOREA INSTITUTE OF SCIENCE AND TECHNOLOGY, priority 2017, dated 2020)
Entries after “also recorded” stand apart in the source; their conditions may differ.

Experiments:
INS-1 cells [1] = assay: Effect on insulin secretion of INS-1 cells (stimulation index, rat insulin RIA); assay type: cell-based; conditions: for Stimulation index (SI): 16.7 mM / […] glucose; for insulin secretion of INS-1 cells in words: concentrations of Table 2
Description: Thereafter, the cells were washed twice with 2 ml of Krebs-Ringer buffer which was prepared by mixing 114 mM sodium chloride (NaCl), 4.4 mM potassium chloride (KCl), 1 mM magnesium sulfate (MgSO4), 1.28 mM calcium chloride (CaCl2), 29.5 mM sodium bicarbonate (NaHCO3), 10 mM Hepes (Gibco BRL Life Technologies), and 0.1% bovine serum albumin (BSA) and adjusting a hydrogen ion concentration at pH 7.4.
The concentration of the single compound was 1 μM, 2.5 μM, and 5 μM.
0.2 mL of Krebs-Ringer buffer containing […] glucose was added to each well, and incubated for 1 hour. Thereafter, centrifugation was performed at 4° C. for 10 minutes at 12,000 rpm, and a supernatant was taken and quantity of insulin was measured by using a Rat insulin RIA kit (Gentaur Molecular Products, Belgium). Stimulation index (SI) was calculated by dividing a value measured at a high concentration of glucose, i.e., quantity of insulin secreted by stimulation of 16.7 mM glucose by a value measured at a low concentration of glucose, i.e., quantity of insulin secreted by stimulation of 3.3 mM glucose. As a positive control group, gliclazide was used at a concentration of 2.5 μM, 5.0 μM, 10 μM, or 20 μM.

INS-1 cells [2] = assay: Image-based cell analysis of apoptosis (Annexin V/PI) in streptozotocin-treated INS-1 cells; parameters: species or system rat; conditions: 50 μM streptozotocin; for green fluorescent (apoptotic) cells, microscopic image FIG. 8A: 10 μM or more; for Apoptosis (%): 10 μM, 24 hours, annexin V-positive cells; for apoptosis by streptozotocin in words, FIG. 8B: INS-1 cells
Description: Thereafter, hypoxylonol-C and BNT at a concentration of 10 μM were added to 2.7 mL of the same medium and further cultured for 2 hours. […] Then, cells were collected by using trypsin, and washed with PBS once. The cells were suspended in 100 μL of Annexin binding buffer (composition: 100 mM HEPES, 140 mM NaCl, 25 mM CaCl2, pH 7.4) at a density of 5×10^5 to 5×10^6 cells/mL, and then mixed with 5 μL of Annexin V Alexa Fluor 488, and fixed and stained at room temperature for 20 minutes in the dark room. The cell suspension was centrifuged to discard the supernatant. Precipitated cell pellets were re-suspended in 100 μL of Annexin binding buffer. 1 μL of propidium was added to the cell suspension and mixed well to fix and stain the cells at room temperature for 1 minute to 5 minutes in the dark room. Analysis of the stained cells was performed by using a Tali Image-based cytometer and TaliPCApp (version 1.0).
Cells were sorted into living cells (annexin V-negative/PI-negative), early apoptotic cells (annexin V-positive/PI-negative), and late apoptotic cells or necrotic cells (annexin V-positive/PI-positive), and total apoptotic cells was expressed as a percentage of annexin V-positive/PI-negative or positive cells.

[3] = Fukai et al., J. Nat. Prod. 2014, 77, 1065-1068; cited from earlier work
INS-1 cells [4] = assay: Measurement of cytotoxicity against INS-1 cells (CCK-8 cell viability); assay type: cell-based, rat; conditions: for Cell viability (%): 24 hours, INS-1; for cytotoxicity / toxicity in words: INS-1 cells, concentrations of Table 1
Description: A cell line INS-1 (Biohermes, Shanghai, China) is a rat insulinoma, and has ability to secrete insulin.
The concentration of the single compound was 1.0 μM, 2.5 μM, and 5.0 μM.
In Table 1, cell viability was calculated by the following equation:
Cell viability (%)=NB×100, wherein A represents absorbance of a non-sample added group and B represents absorbance of a sample-added group.

INS-1 cells [5] = assay: Protecting effect on pancreatic toxicity (streptozotocin-treated INS-1 cells, CCK-8); conditions: for Cell viability (%): rat, 24 h
Description: The cell line INS-1 (Biohermes, Shanghai, China) was used to evaluate a protecting effect on pancreatic toxicity as follows.
INS-1 cells were cultured in RPMI1640 medium (Cellgro, Manassas, USA) supplemented with 10% fetal bovine serum (FBS), 100 unit/mL of penicillin G, 100 μg/mL of streptomycin, 10 mM Hepes, 2 mM L-glutamine, 1 mM sodium pyruvate, and 0.05 mM 2-merchapto ethanol in an incubator maintained at 37° C. and 95% air/5% carbon dioxide. Among the above-mentioned ingredients, the reagents of which manufacturers were not mentioned were purchased from Gibco BRL, Life Technologies.
The cultured INS-1 cells were dispensed at a density of 1×10^4 per well in 100 μL of the same medium in a 96-well plate, and cultured for 24 hours under the same conditions to stabilize the cells. […] Then, 10 μL (final concentration of 50 μM) of 500 μM streptozotocin in the same medium was added and cultured for 24 hours. Then, 10 μL of CCK-8 (Dojindo Laboratories, Japan) reagent was added to each well, and cultured at 37° C. 1 hour later, absorbance at 450 nm was measured by using a BIO-TEK (Winooski, Vt., USA) microplate reader to measure cell viability. The predetermined concentrations are as follows: concentrations of the extract and the fractions were 0 μg/mL, 5 μg/mL, 10 μg/mL, 25 μg/mL, 50 μg/mL, and 100 μg/mL. The concentration of the single compound was 0 μM, 5 μM, 10 μM, 25 μM, 50 μM, and 100 μM.

[6] = 2.5 (head μg/ml; b127, b128 μM for single compound and gliclazide)
[7] = 5.0 (head μg/ml; b127, b128 μM for single compound and gliclazide)
[8] = 1.0 (μg/mL; μM for single compound)
[9] = 2.5 (μg/mL; μM for single compound)
[10] = 5.0 (μg/mL; μM for single compound)
[11] = 1.0 (head μg/ml; b127 μM for single compound)

SMILES | Stimulation index (SI) (INS-1 cells [1]; [6]) | Stimulation index (SI) (INS-1 cells [1]; [7]) | green fluorescent (apoptotic) cells, microscopic image FIG. 8A (INS-1 cells [2]) | Apoptosis (%) (INS-1 cells [2]) | apoptosis by streptozotocin in words, FIG. 8B (INS-1 cells [2]) | Cell viability (%) (INS-1 cells [4]; [8]) | Cell viability (%) (INS-1 cells [4]; [9]) | Cell viability (%) (INS-1 cells [4]; [10]) | cytotoxicity / toxicity in words (INS-1 cells [4]) | cell viability reduced by streptozotocin, effect in words (INS-1 cells [5]; 50 μM streptozotocin) | Cell viability (%) (INS-1 cells [5]; 5 µM) | Cell viability (%) (INS-1 cells [5]; 10 µM) | Cell viability (%) (INS-1 cells [5]; 25 µM) | Cell viability (%) (INS-1 cells [5]; 50 µM) | Stimulation index (SI) (INS-1 cells [1]; [11]) | insulin secretion of INS-1 cells in words (INS-1 cells [1]) | further results
Cc1ccc(S(=O)(=O)NC(=O)NN2CC3CCCC3C2)cc1 (stereo not shown) [gliclazide, reference compound] | 6.1 ± 0.0 | 5.7 ± 0.0 |  |  |  |  |  |  |  |  |  |  |  |  |  |  | Stimulation index (SI) (INS-1 cells [1]; 10.0 (head μg/ml; b128 μM for gliclazide)): 6.1 ± 0.1; Stimulation index (SI) (INS-1 cells [1]; 20.0 (head μg/ml; b128 μM for gliclazide)): 9.3 ± 0.0
O=C1CC2C(=C3c4c2ccc(O)c4[C@@H](O)C[C@@H]3O)c2cccc(O)c21 (stereo partly shown) [Hypoxylonol-C] | 5.3 ± 0.1 | 6.1 ± 0.1 | apoptotic cells were decreased | 21.6 ± 1.5 | remarkably reduced apoptosis | 97.4 ± 1.7 | 96.4 ± 1.4 | 97.3 ± 3.0 | no cytotoxicity; also recorded: no toxicity | significantly increased cell viability | 66.0 ± 0.9 | 75.6 ± 2.5 | 80.7 ± 1.5 | 85.7 ± 1.7 | 6.3 ± 0.3 | concentration-dependent manner | antiangiogenic effect [3]: has an antiangiogenic effect
O=C1CC2C(=C3c4c2ccc(O)c4[C@H](O)C[C@@H]3O)c2cccc(O)c21 (stereo partly shown) [Hypoxylonol-F] | 7.7 ± 0.3 | 10.6 ± 0.3 |  |  |  | 96.2 ± 4.5 | 97.3 ± 4.6 | 96.1 ± 0.9 | no cytotoxicity; also recorded: no toxicity | significantly increased cell viability | 70.1 ± 1.7 | 68.3 ± 3.2 | 70.0 ± 4.3 | 69.8 ± 3.8 | 7.1 ± 0.4 | concentration-dependent manner | Cell viability (%) (INS-1 cells [5]; 100 µM): 71.6 ± 0.9%
CN(N=O)C(=O)N[C@H]1C(O)O[C@H](CO)[C@@H](O)[C@@H]1O (mixture of isomers) [streptozotocin, reference compound] |  |  |  |  |  |  |  |  |  |  |  |  |  |  |  |  | number of INS-1 cells as compared with non-treated group (INS-1 cells [5]; 50 μM streptozotocin, 24 hours): ≤ 50%
Oc1cccc2c(-c3ccc(O)c4c(O)cccc34)ccc(O)c12 [BNT, 1,1′-binaphthalene-4,4′,5,5′-tetrol] | 7.4 ± 0.0 | 6.8 ± 0.2 | apoptotic cells were decreased | 19.3 ± 0.5 | remarkably reduced apoptosis | 100.3 ± 3.6 | 100.1 ± 2.1 | 106.6 ± 2.9 | no cytotoxicity; also recorded: no toxicity | significantly increased cell viability | 73.5 ± 3.0 | 76.8 ± 4.5 | 78.4 ± 1.5 | 81.5 ± 3.3 | 6.7 ± 0.0 | concentration-dependent manner | 
